# From PMC5554537 (Frontiers in Pharmacology, 2017)
# Read-outs that look alike come from different tables or passages of the source.
# Key:
# [1] = Metabolite profile in plasma, liver and HT29 tumor after i.p. SN30000; assay type: in vivo, NIH-III mice; settings: SN30000 186 mg/kg i.p.; for Metabolite/SN30000 peak area, Tumor: HT29 tumor
# Protocol: Mouse plasma and tissue homogenates, prepared from tissue samples in two volumes of ice-cold PBS using a TissueLyser II (Qiagen Sciences, Germantown, MD, United States) with 30 Hz oscillation frequency for 1 min, were processed by precipitating proteins with 3 vol MeOH and centrifuging (13,000 g, 4°C for 10 min). Supernatants were diluted into 3 vol water and analyzed with an Agilent model 6460 LC-MS/MS with an in-line photodiode array absorbance detector. Chromatographic separation was performed on a Zorbax Eclipse C18 column (100 mm × 3.0 mm, 1.8 μm; Agilent Technologies) at 35°C with a flow rate of 0.6 mL/min, with positive or negative mode electrospray ionization. The mobile phase was a gradient constructed using 80% MeCN/20% water/0.1% formic acid v/v/v (A) and 0.1% formic acid in water (B) from 10% A to 80% A with a total run time of […]. The gradient profile was: 0–4 min, 10% A; 4–11 min linear increase to 60% A; 11–12 min to 80% A; held for 1 min, returned to 10% A over 0.5 min and held for 2 min before the next sample injection. Absorbance spectra were collected from 230 to 600 nm with a reference wavelength of 550 nm. The mass/charge (m/z) ratio was scanned from 100 to 800 with a fragmentor voltage of 120 V. MS^2 with various collision energies was used for further characterization of some metabolites.
# Metabolites were investigated in plasma, liver and HT29 tumors following i.p. dosing of female NIH-III mice with SN30000 at 186 mg/kg, which represents its previously determined MTD for this route and mouse strain ([Gu et al., 2014]). Representative chromatograms are shown in Supplementary Figure 1. A total of 19 metabolites (M1–M19) were provisionally identified (Figure 1 and Table 1). Assignments were confirmed by comparison with synthetic standards in the case of the 1-oxide M14 and nor-oxide M13, which have previously been reported as murine metabolites of SN30000 ([Wang et al., 2012]) and for M15 which is known to be the major photodegradation product of SN30000 ([Gu et al., 2014]). In addition, the previously unreported metabolite M18, which is the main plasma metabolite at late times, was isolated from pooled plasma of mice dosed with M14 in sufficient quantity for characterization by NMR (Supplementary Data). This identified M18 as an oxidation product of M14 with an alkanoic acid side-chain (Figure 1), an assignment that was confirmed by synthesis of the authentic compound which was identical by HPLC retention time, absorbance spectrum, elemental analysis, mass spectrum and NMR spectroscopy.
# [2] = Compartmental plasma PK model; assay type: in vivo
# Description: This model, shown schematically in Figure 9, is based on total (free + bound) plasma concentrations; the major metabolites (M14, M13, and M18) are explicit and clearance of SN30000 occurs only by reduction to M14. The i.p. bioavailability of SN30000 was modeled with an additional term for loss from the peritoneal compartment (kloss).
# [3] = in vivo; settings: female, NIH-III nude, mouse, plasma, ip
# Protocol: SN30000, M14 and M18 dosing solutions were prepared fresh in normal saline, filtered through 0.45 μm Acrodisc filters (Pall Life Sciences, Port Washington, NY, United States), protected from light in amber vials, and used within 3 h. Doses are expressed as mg of free base equivalent for SN30000 and M14, and free acid in the case of M18. […] Blood samples were collected from mice at various times by cardiac puncture, seconds after cervical dislocation, into ice-cold tubes containing K2EDTA. These were placed on ice immediately after collection and centrifuged (3,000 g, 3 min) within 10 min to harvest plasma. Plasma and tissues were rapidly frozen in liquid nitrogen before storage at -80°C for subsequent bioanalysis.
# Non-compartmental parameters of 3H-mannitol for the data
# shown in Figure 9 where female NIH-III nude mice were dosed with 3H-mannitol at
# from mannitol concentrations as described in Methods for SN30000 and its metabolites.
# Co-administered with Administered 16hr
# [4] = test system: SiHa cells; assay: Oxygen consumption rate, Seahorse XFe96 analyser; assay type: cell-based, human; settings: 200 µM, mitochondrial stress test
# Protocol: (OCR) of the human cervical carcinoma cell line SiHa and a previously described (Guise et al., 2007) POR-overexpressing transfectant SiHa/POR, determined using a Seahorse XFe96 Analyser (Agilent). Cells were passaged in αMEM plus 5% FCS, with 1 µM puromycin to maintain POR expression in the SiHa/POR cell line. Cells were ty pically seeded at 4×10^4 cells/well in Seahorse 96 well plates (without puromycin) and ~ 18 hr later the medium was changed to Seahorse medium with 10 mM glucose and 2 mM glutamine (SMGG) adjusted to pH 7.35 (150 µl/well). Plates were degassed to remove CO2, and inhibitors were added serially using the Seahorse injectors (25 µl/injection) with rotenone (final concentration 0.5 µM) typically added at the start of the 30 min equilibration in the flux analyser. OCR was monitored for three 3 min periods following each drug addition. […]
# injection 1 and at each subsequent injection to maintain concentrations at 200 µM continuously during the test. The control received equivalent injections of SMGG without drugs. In all cases (including controls), injection 2 added oligomycin to give 0.5 µM, injection 3 added carbonyl cyanide […] (FCCP) to 0.5 µM, and injection 4 added rotenone and antimy cin to 1 µM each. V alues are means and errors are standard deviations, for 6 replicate cultures. […]
# suppressed by M14, both in the presence (injection 1) and absence (injection 4) of respiratory […]
# presence or absence of 0.5 µM rotenone when SN30000 is added cumulatively to give the indicated concentrations. Values are means and SEM for 5 replicate cultures. The fall in OCR after transient stimulation at each addition of SN30000 is consistent with the pattern for CHO/POR cells in Supplementary Fig. 4A.
# C: Concentration dependence of increases in OCR by SiHa/POR cells, measured at the first […]
# effects noted above. Left panel: SN30000. Right panel: TPZ. Values are means and errors are […]
# [5] = test system: NIH-III mice; assay: Core body (rectal) temperature and acute clinical signs after dosing; assay type: in vivo
# Protocol: Supplementary Figure 3. Initial rates of core temperature decrease in (untreated) NIH-III mice post- mortem: co mparison with initial temperature change ante- mortem following treatment with benzotriazine oxides at their MTD. Temperature was measured in rectu m and liver over 15 min. Initial rates of temperature loss (°C/min) were: post- mortem (rectum):
# (rectum) 0.33. The rectal temperature loss following dosing with M14 (135 mg/kg) was 0.6 °C/min (not shown for clarity). The drug-induced changes are redrawn from Fig. 4.
# [6] = test system: NIH-III mice; assay: Mouse toxicity: MTD, survival and body weight loss after single i.p. doses; assay type: in vivo; settings: i.p., NIH-III mice, as stated for the temperature study (Figure 4)
# Description: Mouse toxicity SN30000 and metabolites M14 and M18: survival and body weight loss following single i.p. doses to NIH-III mice.
# Cmpd Dose Body weight nadir Body weight nadir
# (µmol/kg) Survivala Survivala
# Day Weight loss (%)b Day Weight loss (%)b […]
# a Survival reported as a fraction of total nu mber of animal treated at a giv en dose, with an observation time of 14 days. Deaths were predominantly due to humane ter mination because of persistent clinical signs or body weight loss > 15% of pretreatment values. b Body weig ht loss at nadir, relative to pre-treatment values. Values are mean and errors are […]
# c Data from Gu et al., 2014 d Mouse died <24 hr after dosing.
# [7] = administered 16hr after SN30000 0 mg/kg
# [8] = co-administered with SN30000 18.6 mg/kg i.p.
# [9] = co-administered with SN30000 92.8 mg/kg i.p.
# [10] = co-administered with SN30000 186 mg/kg i.p.
# [11] = at the highest i.p. dose of co-administered SN30000
smiles,measurement,setting,value
O=C1COCCN1CCCc1nc2cc3c(cc2[n+]([O-])n1)CCC3 [M19],"Metabolite/SN30000 peak area, Tumor",[1],0.02
same,"Metabolite/SN30000 peak area, Liver",[1],0.27
same,"Metabolite/SN30000 peak area, Plasma",[1],0.03
"OC[C@@H](O)[C@@H](O)[C@H](O)[C@H](O)CO [Mannitol, mannitol]",Central compartment volume V1,[2]; 1-Oxide and Nor-oxide values fixed,0.39 L/kg
same,Approximate % suppression per °C of CL,"[2]; NIH-III, mouse, in vivo",~24%
same,clearance,"[2]; NIH-III, mouse, plasma, other: i.p. and i.v. datasets fitted simultaneously, model clearance of the compound, read-out: CL (converted)",19.5 mL/min/kg
same,Vd,"[2]; NIH-III, mouse, plasma, other: i.p. and i.v. datasets fitted simultaneously, read-out: Steady state volume VSS",0.39 L/kg
same,Cmax,"[3]; 18.6 mg/kg, administered 16hr after SN30000 18.6 mg/kg i.p.",36.9 µM
same,half-life,"[3]; 18.6 mg/kg, T1/2, administered 16hr after SN30000 18.6 mg/kg i.p.",21 min
same,Cmax,"[3]; 186 mg/kg, administered 16hr after SN30000 186 mg/kg i.p.",33.2 µM
same,half-life,"[3]; 186 mg/kg, T1/2, administered 16hr after SN30000 186 mg/kg i.p.",23.2 min
same,Cmax,[3]; [7],31.7 µM
same,Cmax,[3]; co-administered with SN30000 1.86 mg/kg i.p.,41.2 µM
same,Cmax,[3]; [8],43.5 µM
same,Cmax,[3]; [9],52.3 µM
same,Cmax,[3]; [10],51 µM
same,half-life,"[3]; T1/2, administered 16hr after SN30000 0 mg/kg",19.7 min
same,half-life,"[3]; T1/2, co-administered with SN30000 1.86 mg/kg i.p.",14.1 min
same,half-life,"[3]; T1/2, co-administered with SN30000 18.6 mg/kg i.p.",13.1 min
same,half-life,"[3]; T1/2, co-administered with SN30000 92.8 mg/kg i.p.",24.6 min
same,half-life,"[3]; T1/2, co-administered with SN30000 186 mg/kg i.p.",26.9 min
same,AUC,3H-mannitol 25 µmol/kg co-administered with SN30000 1.86 mg/kg i.p.,16.1 µM.hr/L
same,AUC,[7],17.5 µM.hr/L
same,AUC,administered 16hr after SN30000 18.6 mg/kg i.p.,19.6 µM.hr/L
same,AUC,administered 16hr after SN30000 186 mg/kg i.p.,20.4 µM.hr/L
same,Increase in AUC,[11],3 fold
same,Increase in plasma half-life,[11],~2 fold
same,AUC,[8],17.9 µM.hr/L
same,AUC,[9],36.2 µM.hr/L
same,AUC,[10],44.5 µM.hr/L
[O-][n+]1nc(CCCNCCO)[n+]([O-])c2cc3c(cc21)CCC3 [M7],"Metabolite/SN30000 peak area, Tumor",[1],0.06
same,"Metabolite/SN30000 peak area, Liver",[1],0.17
same,"Metabolite/SN30000 peak area, Plasma",[1],0.06
[O-][n+]1nc(CCCN2CCOCC2)nc2cc3c(cc21)CC=C3 [M5],"Metabolite/SN30000 peak area, Tumor",[1],0.04
same,"Metabolite/SN30000 peak area, Liver",[1],0.64
same,"Metabolite/SN30000 peak area, Plasma",[1],0.05
OCCNCCCc1nnc2cc3c(cc2n1)CCC3 [M11],"Metabolite/SN30000 peak area, Tumor",[1],0.06
same,"Metabolite/SN30000 peak area, Liver",[1],0.34
same,"Metabolite/SN30000 peak area, Plasma",[1],0.04
[O-][n+]1nc(CCC[N+]2([O-])CCOCC2)nc2cc3c(cc21)CCC3 [M15],"Metabolite/SN30000 peak area, Tumor",[1],0.24
same,"Metabolite/SN30000 peak area, Liver",[1],0.21
same,"Metabolite/SN30000 peak area, Plasma",[1],0.26
"Nc1n[n+]([O-])c2ccccc2[n+]1[O-] [TPZ, tirapazamine, reference compound]",Effect on oxygen consumption rate (OCR),[4],increased
same,Initial rate of temperature loss (rectum),"[5]; i.p. SN30000 186 mg/kg, TPZ 31.7 mg/kg, M14 135 mg/kg",0.33 °C/min
same,Effect on core body temperature,"[5]; i.p. dosing at MTD, compared with SN30000",induced hypothermia
same,MTD,[6],31.7 mg/kg
O=C(O)CCc1n[n+]([O-])c2cc3c(cc2[n+]1[O-])CCC3 [M16],"Metabolite/SN30000 peak area, Tumor",[1],0.49
same,"Metabolite/SN30000 peak area, Liver",[1],0.34
same,"Metabolite/SN30000 peak area, Plasma",[1],0.50
[O-][n+]1nc(CCCNCCO)nc2cc3c(cc21)CCC3 [M12],"Metabolite/SN30000 peak area, Tumor",[1],0.16
same,"Metabolite/SN30000 peak area, Liver",[1],1.06
same,"Metabolite/SN30000 peak area, Plasma",[1],0.13
O=C(O)CCc1nnc2cc3c(cc2n1)CCC3 [M17],"Metabolite/SN30000 peak area, Tumor",[1],0.14
same,"Metabolite/SN30000 peak area, Liver",[1],0.12
same,"Metabolite/SN30000 peak area, Plasma",[1],0.11
